For one test, the system named is MOLT-4 cancer cell line. The experiment in a line: Cell proliferation assay, MOLT-4 cancer cell line (ATPlite).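 Further: luminescence read-out, percent growth versus compound-free DMSO wells as maximum growth, start-of-incubation signal separating growth from cell death, IC50 from logistic curve fit.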 Format: cell-based. The note with it: Homo sapiens. (Cellular ATP, detected with luciferase, serves as a proxy for viable cell number.)
The next test addresses T1, Aurora A (Homo sapiens, UniProt O14965).
T1 construct: full-length Aurora A enzyme (Carna Biosciences, cat. no. 05-101); purchased Carna Biosciences 05-101
T1 sequence (O14965 1-403): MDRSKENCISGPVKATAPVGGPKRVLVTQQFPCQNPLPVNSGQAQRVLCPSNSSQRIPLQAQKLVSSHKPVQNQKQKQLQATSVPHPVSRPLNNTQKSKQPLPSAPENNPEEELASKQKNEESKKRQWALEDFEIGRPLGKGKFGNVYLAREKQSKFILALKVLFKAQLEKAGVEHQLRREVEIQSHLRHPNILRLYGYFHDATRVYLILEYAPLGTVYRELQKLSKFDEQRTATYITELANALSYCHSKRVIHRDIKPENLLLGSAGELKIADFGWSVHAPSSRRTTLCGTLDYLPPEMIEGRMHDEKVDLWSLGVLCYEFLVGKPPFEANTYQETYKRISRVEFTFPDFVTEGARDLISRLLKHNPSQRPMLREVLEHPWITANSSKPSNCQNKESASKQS
As to the kind of experiment: Biochemical Aurora A kinase assay (LANCE Ultra TR-FRET). The note with it: for AurA Selectivity: IC50 AurA/IC50 TTK (biochemical assays); for pIC50: full-length Aurora A, 2 μM ATP.

The next test concerns the target T2, Aurora C (Homo sapiens, UniProt Q9UQB9).
T2 construct: full-length Aurora C enzyme (Carna Biosciences, cat. no. 05-103); purchased Carna Biosciences 05-103
T2 sequence (Q9UQB9 1-309): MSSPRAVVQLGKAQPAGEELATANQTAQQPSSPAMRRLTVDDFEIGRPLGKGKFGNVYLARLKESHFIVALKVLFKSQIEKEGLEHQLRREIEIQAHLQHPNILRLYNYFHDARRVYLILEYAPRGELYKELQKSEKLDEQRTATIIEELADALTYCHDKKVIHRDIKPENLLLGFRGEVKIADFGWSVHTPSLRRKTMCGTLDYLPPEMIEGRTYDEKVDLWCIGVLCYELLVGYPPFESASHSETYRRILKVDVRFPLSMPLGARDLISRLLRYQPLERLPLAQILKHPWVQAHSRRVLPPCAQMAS
As to the kind of experiment: Biochemical Aurora C kinase assay (LANCE Ultra TR-FRET). The note with it: for AurC Selectivity: IC50 AurC/IC50 TTK (biochemical assays); for pIC50: full-length Aurora C, 5 μM ATP. Background: TR-FRET usually uses a lanthanide donor and a delayed reading to cut background.

Test [1] has as its target Polo-like kinase 1 (PLK1) (Homo sapiens, UniProt P53350). As to the kind of experiment: Biochemical Polo-like kinase 1 kinase assay (LANCE Ultra TR-FRET). The note with it: for PLK1 Selectivity: IC50 PLK1/IC50 TTK (biochemical assays).
Experimental: To determine the inhibitory activity of the compounds on Polo-like kinase 1 (PLK1), the LANCE® Ultra TR-FRET assay (Perkin Elmer) was used. […] After 4 hours, the reaction was stopped by the addition of 5 μl 100 mM EDTA. […] Time-resolved fluorescence was measured on an Envision multilabel reader (Perkin Elmer, Waltham, Mass. USA). IC50 were calculated using XLfit™5 software (ID Business Solutions, Ltd., Surrey, U.K.).
The subject of test [2] is HeLa-Matu cervical tumor cell. The note with it: cited from earlier work.
The mark [3] stands for this setting: MOLT-4, 72 hours incubation, ATPlite 1Step, read-out: IC50 MOLT-4 cell proliferation.
The mark [4] stands for this setting: MOLT-4, read-out: IC50 in the TTK cellular assay.
Where [5] appears, read: MOLT-4, worded 'TTK cellular assay', read-out: IC50 in the TTK cellular assay.

pIC50: −log10 of the molar value. Where two headings read alike, the source gives them in different places. A value given as a limit tells only on which side of the number the result lay.

Chain of Polo-like kinase 1 (PLK1) (P53350 whole entry): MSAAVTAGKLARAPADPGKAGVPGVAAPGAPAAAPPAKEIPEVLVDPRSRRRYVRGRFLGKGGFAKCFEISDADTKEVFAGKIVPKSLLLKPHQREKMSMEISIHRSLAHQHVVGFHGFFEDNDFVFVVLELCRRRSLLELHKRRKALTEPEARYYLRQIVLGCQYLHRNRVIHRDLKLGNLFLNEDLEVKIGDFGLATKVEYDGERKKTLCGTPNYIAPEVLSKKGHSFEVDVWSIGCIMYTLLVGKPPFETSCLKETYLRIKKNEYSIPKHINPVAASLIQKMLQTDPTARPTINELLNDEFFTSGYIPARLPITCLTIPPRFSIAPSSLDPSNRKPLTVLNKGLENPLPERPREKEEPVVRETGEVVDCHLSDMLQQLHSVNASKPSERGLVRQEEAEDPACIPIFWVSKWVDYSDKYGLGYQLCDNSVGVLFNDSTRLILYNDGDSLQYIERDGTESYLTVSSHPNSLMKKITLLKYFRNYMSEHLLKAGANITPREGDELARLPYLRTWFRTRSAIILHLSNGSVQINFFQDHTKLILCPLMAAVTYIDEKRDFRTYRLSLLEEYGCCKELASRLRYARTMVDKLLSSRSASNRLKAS
Experimental for Aurora A: To determine the inhibitory activity of the compounds on Aurora A, the LANCE® Ultra TR-FRET assay (Perkin Elmer) was used. […] After 2 hours, the reaction was stopped by the addition of 5 μl 100 mM EDTA. […] Time-resolved fluorescence was measured on an Envision multilabel reader (Perkin Elmer, Waltham, Mass., USA). IC50 were calculated using XLfit™5 software (ID Business Solutions, Ltd., Surrey, U.K.).
Experimental for Aurora C: To determine the inhibitory activity of the compounds on Aurora C, the LANCE® Ultra TR-FRET assay (Perkin Elmer) was used. […] After pre-incubation of 1 hour in the dark at room temperature, ULightTM-labeled PLK([MUT]) substrate peptide (Perkin Elmer, cat. no. TRF-0110) and ATP were added, to start the reaction. […] After 3 hours, the reaction was stopped by the addition of 5 μl 100 mM EDTA. […] Time-resolved fluorescence was measured on an Envision multilabel reader (Perkin Elmer, Waltham, Mass., USA). IC50 were calculated using XLfitTM5 software (ID Business Solutions, Ltd., Surrey, U.K.).
Experimental for MOLT-4 cancer cell line: 5 μL of compound solution was added and the plates were incubated for an additional 72 hours after which 25 μL of ATPlite 1Step™ (PerkinElmer, Groningen, The Netherlands) solution was added to each well. Luminescence was recorded on an Envision multimode reader. The cell signal at the start of incubation was recorded separately in order to distinguish between cell population growth and cell death. In addition, maximum growth was determined by incubation of a duplicate without compound in the presence of 0.4% DMSO. Percentage growth was used as the main y-axis signal. IC50s were fitted by non-linear regression using IDBS XLfit™5 using a 4-parameter logistic curve, yielding a maximum signal, minimum signal, hill-parameter and IC50.

As to `COCCOCCOCCn1nc(C)c(NC(=O)c2ccn3c2CCc2cnc(Nc4ccc(N5CCN(C)CC5)cc4OC)nc2-3)c1C` [Example 138, N-[1-[2-[2-(2-methoxyethoxy)ethoxy]ethyl]-3,5-dimethyl-pyrrazol-4-yl]-2-[2-methoxy-4-(4-methylpiperazin-1-yl)anilino]-5,6-dihydropyrimido[4,5-e]indolizine-7-carboxamide], the pIC50 in the test with MOLT-4 cancer cell line (setting [3]) was > 7.30. For the same molecule, at Aurora A, the “AurA Selectivity” value is given as >500 and the pIC50 was ≤ 7.00. At Aurora C, the “AurC Selectivity” value is >500 and the pIC50 was ≤ 7.00. In test [1], the pIC50 is ≤ 6.60 and the “PLK1 Selectivity” value was >500.
Turning to `CCc1nn(CCOCCOC)c(CC)c1NC(=O)c1ccn2c1CCc1cnc(Nc3ccc(N4CCN(C)CC4)cc3OC)nc1-2` [Example 141, N-[3,5-diethyl-1-[2-(2-methoxyethoxy)ethyl]pyrazol-4-yl]-2-[2-methoxy-4-(4-methylpiperazin-1-yl)anilino]-5,6-dihydropyrimido[4,5-e]indolizine-7-carboxamide], the pIC50 with MOLT-4 cancer cell line (setting [3]) is > 7.30. At Aurora A, the “AurA Selectivity” value was >200 and the pIC50 is ≤ 7.00. On Aurora C, the “AurC Selectivity” value was >500 and the pIC50 is ≤ 7.00. Further, in test [1], the pIC50 is ≤ 6.60 and the “PLK1 Selectivity” value was >500.
For the molecule `CCOCCOCCn1nc(C)c(NC(=O)c2ccn3c2CCc2cnc(Nc4ccc(N5CCN(C)CC5)cc4OC)nc2-3)c1C` [Example 148, N-[1-[2-(2-ethoxyethoxy)ethyl]-3,5-dimethyl-pyrazol-4-yl]-2-[2-methoxy-4-(4-methylpiperazin-1-yl)anilino]-5,6-dihydropyrimido[4,5-e]indolizine-7-carboxamide], the pIC50 with MOLT-4 cancer cell line (setting [4]) is > 7.30; on Aurora A, ≤ 7.00; on Aurora C, ≤ 7.00; in test [1], ≤ 6.60.
Take `COCCOCCn1nc(C)c(NC(=O)c2ccn3c2CCc2cnc(Nc4ccc(N5CCN(C)CC5)cc4OC)nc2-3)c1C` [Example 149, N-[1-[2-(2-methoxyethoxy)ethyl]-3,5-dimethyl-pyrazol-4-yl]-2-[2-methoxy-4-(4-methylpiperazin-1-yl)anilino]-b,6-dihydropyrimido[4,5-e]indolizine-7-carboxamide]: the pIC50 in the test on MOLT-4 cancer cell line (setting [5]) is > 7.30. For the same molecule, on Aurora A, the “AurA Selectivity” value was >200 and the pIC50 was ≤ 7.00. Further, at Aurora C, the “AurC Selectivity” value is given as >500 and the pIC50 is ≤ 7.00. Moreover, in test [1], the pIC50 is ≤ 6.60 and the “PLK1 Selectivity” value is listed as >500.
Regarding `CCOCCOCCn1nc(CC)c(NC(=O)c2ccn3c2CCc2cnc(Nc4ccc(N5CCN(C)CC5)cc4OC)nc2-3)c1CC` [Example 150, N-[1-[2-(2-ethoxyethoxy)ethyl]-3,5-diethyl-pyrazol-4-yl]-2-[2-methoxy-4-(4-methylpiperazin-1-yl)anilino]-5,6-dihydropyrimido[4,5-e]indolizine-7-carboxamide], the pIC50 with MOLT-4 cancer cell line (setting [5]) was > 7.30. Further, at Aurora A, the “AurA Selectivity” value is >200 and the pIC50 is ≤ 7.00. In addition, at Aurora C, the “AurC Selectivity” value is given as >500 and the pIC50 is ≤ 7.00. Moreover, in test [1], the pIC50 was ≤ 6.60 and the “PLK1 Selectivity” value is given as >500.
With `CCOCCOCCn1nc(CC)c(NC(=O)c2ccn3c2CCc2cnc(Nc4ccc(N5CCNCC5)cc4OC)nc2-3)c1CC` [Example 151, N-[1-[2-(2-ethoxyethoxy)ethyl]-3,5-diethyl-pyrazol-4-yl]-2-(2-methoxy-4-piperazin-1-yl-anilino)-5,6-dihydropyrimido[4,5-e]indolizine-7-carboxamide], the pIC50 in the test on MOLT-4 cancer cell line (setting [5]) is > 7.30. Besides, at Aurora A, the “AurA Selectivity” value was >100 and the pIC50 was ≤ 7.00. Moreover, on Aurora C, the “AurC Selectivity” value is >500 and the pIC50 is ≤ 7.00. Besides, in test [1], the pIC50 was ≤ 6.60 and the “PLK1 Selectivity” value is on record as >500.
On to `COCCn1nc(C)c(NC(=O)c2ccn3c2CCc2cnc(Nc4ccc(N5CCN(C(=O)C6CN(C)C6)CC5)cc4OC)nc2-3)c1C` [Example 155, N-[1-(2-methoxyethyl)-3,5-dimethyl-pyrazol-4-yl]-2-[2-methoxy-4-[4-(1-methylazetidine-3-carbonyl)piperazin-1-yl]anilino]-5,6-dihydropyrimido[4,5-e]indolizine-7-carboxamide], for which the pIC50 was > 7.30 in the test on MOLT-4 cancer cell line (setting [5]), ≤ 7.00 at Aurora A, ≤ 7.00 at Aurora C and ≤ 6.60 in test [1]. Besides, the “AurA Selectivity” value on Aurora A is reported as >200. Also, the “AurC Selectivity” value at Aurora C is on record as >500. Moreover, in test [1], the “PLK1 Selectivity” value is >500.
For `COCCOCCOCCn1nc(C)c(NC(=O)c2ccn3c2CCc2cnc(Nc4ccc(N5CCNCC5)cc4OC)nc2-3)c1C` [Example 156, N-[1-[2-[2-(2-methoxyethoxy)ethoxy]ethyl]-3,5-dimethyl-pyrazol-4-yl]-2-(2-methoxy-4-piperazin-1-yl-anilino)-5,6-dihydropyrimido[4,5-e]indolizine-7-carboxamide], the pIC50 in the test on MOLT-4 cancer cell line (setting [5]) is > 7.30. Further, at Aurora A, the “AurA Selectivity” value was >200 and the pIC50 was ≤ 7.00. Further, on Aurora C, the “AurC Selectivity” value was >500 and the pIC50 was ≤ 7.00. Also, in test [1], the pIC50 is ≤ 6.60 and the “PLK1 Selectivity” value is recorded as >500.
As for `CCNCC(=O)N1CCN(c2ccc(Nc3ncc4c(n3)-n3ccc(C(=O)Nc5c(C)nn(CCOCCOCCOC)c5C)c3CC4)c(OC)c2)CC1` [Example 157, 2-[4-[4-[2-(Ethylamino)acetyl]piperazin-1-yl]-2-methoxy-anilino]-N-[1-[2-[2-(2-methoxyethoxy)ethoxy]ethyl]-3,5-dimethyl-pyrazol-4-yl]-5,6-dihydropyrimido[4,5-e]indolizine-7-carboxamide], the pIC50 in the test with MOLT-4 cancer cell line (setting [5]) was > 7.30. At Aurora A, the “AurA Selectivity” value is >200 and the pIC50 is ≤ 7.00. At Aurora C, the “AurC Selectivity” value is on record as >500 and the pIC50 was ≤ 7.00. Besides, in test [1], the pIC50 was ≤ 6.60 and the “PLK1 Selectivity” value is >500.
In the case of `CCNCC(=O)N1CCN(c2ccc(Nc3ncc4c(n3)-n3ccc(C(=O)Nc5c(CC)nn(CCOCCOC)c5CC)c3CC4)c(OC)c2)CC1` [Example 158, N-[3,5-diethyl-1-[2-(2-methoxyethoxy)ethyl]pyrazol-4-yl]-2-[4-[4-[2-(ethylamino)acetyl]piperazin-1-yl]-2-methoxy-anilino]-5,6-dihydropyrimido[4,5-e]indolizine-7-carboxamide], the pIC50 in the test with MOLT-4 cancer cell line (setting [5]) was > 7.30; at Aurora A, ≤ 7.00; at Aurora C it was ≤ 7.00; in test [1] it was ≤ 6.60. For the same molecule, the “AurA Selectivity” value at Aurora A is >200. At Aurora C, the “AurC Selectivity” value is on record as >500. Further, the “PLK1 Selectivity” value in test [1] is >500.
As for `CCc1nn(CCOCCOC)c(CC)c1NC(=O)c1ccn2c1CCc1cnc(Nc3ccc(N4CCN(C(=O)COC)CC4)cc3OC)nc1-2` [Example 159, N-[3,5-diethyl-1-[2-(2-methoxyethoxy)ethyl]pyrazol-4-yl]-2-[2-methoxy-4-[4-(2-methoxyacetyl)piperazin-1-yl]anilino]-5,6-dihydropyrimido[4,5-e]indolizine-7-carboxamide], in the test on MOLT-4 cancer cell line (setting [5]), the pIC50 is > 7.30. Also, on Aurora A, the “AurA Selectivity” value is >200 and the pIC50 was ≤ 7.00. At Aurora C, the “AurC Selectivity” value is reported as >200 and the pIC50 is ≤ 7.00. Further, in test [1], the pIC50 was ≤ 6.60 and the “PLK1 Selectivity” value is given as >500.
`COCCOCCOCCn1nc(C)c(NC(=O)c2ccn3c2CCc2cnc(Nc4ccc(-c5c(C)nn(C)c5C)cc4OC)nc2-3)c1C` [Example 160, N-[1-[2-[2-(2-methoxyethoxy)ethoxy]ethyl]-3,5-dimethyl-pyrazol-4-yl]-2-[2-methoxy-4-(1,3,5-trimethylpyrazol-4-yl)anilino]-5,6-dihydropyrimido[4,5-e]indolizine-7-carboxamide]: the pIC50 is > 7.30 in the test on MOLT-4 cancer cell line (setting [4]), ≤ 7.00 at Aurora A, ≤ 7.00 on Aurora C and ≤ 6.60 in test [1].
As to `CC(C)CNc1nccn2c(-c3ccc(C(=O)NC4CC4)cc3)cnc12` [Mps-BAY2b], in test [2] (HeLa-Matu mouse xenograft model, with paclitaxel), the “Efficacy of paclitaxel in combination” value is “increased the efficacy of paclitaxel”. Besides, the “HeLa-Matu cervical tumor cell growth” value in test [2] (mouse xenograft model) is “inhibit HeLa-Matu cervical tumor cell growth”.

The values above are taken from patent USRE50082E1, “(5,6-dihydro)pyrimido[4,5-e]indolizines” (NETHERLANDS TRANSLATIONAL RESEARCH CENTER B.V., priority 2014, dated 2024).
